Test results from patent US12509462B2, “3-(phenylsulfonyl)-[1,2,3]triazolo[1,5A]quinazolin-5(4H)-one derivatives” (BIOVERSYS AG, priority 2018, dated 2025).
Converted amounts (≈) assume the structure as drawn.

Key:
HepG2 = details: human, 48 h
MRSA = assay: MIC by broth microdilution in CA-MHB (CLSI); details: Staphylococcus aureus, 18 h, read-out: MIC on MRSA
Procedure: Minimal inhibitory concentrations (MIC) were determined by broth microdilution method in cation-adjusted Mueller-Hinton (CA-MHB) broth according to the CLSI guideline. From an overnight culture plate, cells were resuspended in 0.9% (w/v) saline solution and bacterial inoculum was prepared in CA-MHB with 5×10^5 CFU/ml. Compounds were two-fold serially diluted in CA-MHB and 10 μL of this 10× concentrated samples were added into the 96-well plate. 90 μL of bacterial suspension was finally added to the compounds. Plates were covered and incubated without shaking at 35° C. for 18 hours. Every experiment contained an antibiotic as quality control. MIC was determined visually as the lowest concentration of a compound that prevents visible growth of the bacteria and the plates were scanned for documentation.

| Structure (SMILES) | LD50 HepG2 (HepG2) | MIC (MRSA) [µM] |
| --- | --- | --- |
| Cc1ccc(S(=O)(=O)c2nnn3c2[nH]c(=O)c2ccc(C#N)cc23)c(C)c1 [Compound 6, 3-(2,4-dimethylphenyl)sulfonyl-5-oxo-4H-triazolo[1,5-a]quinazoline-8-carbonitrile] | >=100 μM | ≥ 100 |
| CC(C)c1ccc(S(=O)(=O)c2nnn3c2[nH]c(=O)c2cccc(Cl)c23)cc1 [Compound 9, 9-chloro-3-(4-isopropylphenyl)sulfonyl-4H-triazolo[1,5-a]quinazolin-5-one] | 25 µM | 25 (≈ 10.1 µg/mL) |
| COc1ccc2c(=O)[nH]c3c(S(=O)(=O)c4ccc(C)cc4OC)nnn3c2c1 [Compound 10, 8-methoxy-3-(2-methoxy-4-methyl-phenyl)sulfonyl-4H-triazolo[1,5-a]quinazolin-5-one] | >=100 μM | ≥ 100 |
| COc1ccc2c(=O)[nH]c3c(S(=O)(=O)c4ccc(OC(C)C)cc4C)nnn3c2c1 [Compound 11, 3-(4-isopropoxy-2-methyl-phenyl)sulfonyl-8-methoxy-4H-triazolo[1,5-a]quinazolin-5-one] | >=100 μM | ≥ 100 |
| COc1ccc2c(=O)[nH]c3c(S(=O)(=O)c4ccc(Br)cc4C)nnn3c2c1 [Compound 13, 3-(4-bromo-2-methyl-phenyl)sulfonyl-8-methoxy-4H-triazolo[1,5-a]quinazolin-5-one] | >=100 μM | ≥ 100 |
| COc1ccc2c(=O)[nH]c3c(S(=O)(=O)c4ccc(C)cc4F)nnn3c2c1 [Compound 14, 3-(2-fluoro-4-methyl-phenyl)sulfonyl-8-methoxy-4H-triazolo[1,5-a]quinazolin-5-one] | >=100 μM | ≥ 100 |
| COc1ccc(S(=O)(=O)c2nnn3c2[nH]c(=O)c2ccc(OC)cc23)c(C)c1 [Compound 15, 8-methoxy-3-(4-methoxy-2-methyl-phenyl)sulfonyl-4H-triazolo[1,5-a]quinazolin-5-one] | >=100 μM | ≥ 100 |
| COc1ccc2c(=O)[nH]c3c(S(=O)(=O)c4ccc(NC(C)=O)cc4C)nnn3c2c1 [Compound 16, N-[4-[(8-methoxy-5-oxo-4H-triazolo[1,5-a]quinazolin-3-yl)sulfonyl]-3-methyl-phenyl]acetamide] | >=100 μM | ≥ 100 |
| COc1ccc2c(=O)[nH]c3c(S(=O)(=O)c4ccc(F)cc4C)nnn3c2c1 [Compound 17, 3-(4-fluoro-2-methyl-phenyl)sulfonyl-8-methoxy-4H-triazolo[1,5-a]quinazolin-5-one] | >=100 μM | ≥ 100 |
| COc1ccc2c(=O)[nH]c3c(S(=O)(=O)c4ccc(OC(F)(F)F)cc4C)nnn3c2c1 [Compound 19, 8-methoxy-3-[2-methyl-4-(trifluoromethoxy)phenyl]sulfonyl-4H-triazolo[1,5-a]quinazolin-5-one] | >=100 μM | ≥ 100 |
| COc1ccc2c(=O)[nH]c3c(S(=O)(=O)c4ccc(Cl)cc4C)nnn3c2c1 [Compound 20, 3-(4-chloro-2-methyl-phenyl)sulfonyl-8-methoxy-4H-triazolo[1,5-a]quinazolin-5-one] | >=100 μM | ≥ 100 |
| COc1ccc2c(=O)[nH]c3c(S(=O)(=O)c4ccc(C#N)cc4C)nnn3c2c1 [Compound 22, 4-[(8-methoxy-5-oxo-4H-triazolo[1,5-a]quinazolin-3-yl)sulfonyl]-3-methyl-benzonitrile] | >=100 μM | ≥ 100 |
| COc1ccc2c(=O)[nH]c3c(S(=O)(=O)c4ccc(C(=O)O)cc4C)nnn3c2c1 [Compound 23, 4-[(8-methoxy-5-oxo-4H-triazolo[1,5-a]quinazolin-3-yl)sulfonyl]-3-methyl-benzoic acid] | >=100 μM | ≥ 100 |
| CCOC(=O)c1ccc(S(=O)(=O)c2nnn3c2[nH]c(=O)c2ccc(OC)cc23)c(C)c1 [Compound 24, ethyl 4-[(8-methoxy-5-oxo-4H-triazolo[1,5-a]quinazolin-3-yl)sulfonyl]-3-methyl-benzoate] | >=100 μM | ≥ 100 |
| COc1ccc2c(=O)[nH]c3c(S(=O)(=O)c4ccc(C(F)(F)F)cc4)nnn3c2c1 [Compound 25, 8-methoxy-3-[4-(trifluoromethyl)phenyl]sulfonyl-4H-triazolo[1,5-a]quinazolin-5-one] | >=100 μM | ≥ 100 |
| COc1ccc2c(=O)[nH]c3c(S(=O)(=O)c4ccc(C#N)cc4)nnn3c2c1 [Compound 29, 4-[(8-methoxy-5-oxo-4H-triazolo[1,5-a]quinazolin-3-yl)sulfonyl]benzonitrile] | >=100 μM | ≥ 100 |
| COc1ccc2c(c1)c(=O)[nH]c1c(S(=O)(=O)c3ccc(C)cc3C)nnn12 [Compound 30, 3-(2,4-dimethylphenyl)sulfonyl-7-methoxy-4H-triazolo[1,5-a]quinazolin-5-one] | >=100 μM | ≥ 100 |
| COc1ccc2c(=O)[nH]c3c(S(=O)(=O)c4ccc(-c5nn[nH]n5)cc4C)nnn3c2c1 [Compound 31, 8-methoxy-3-[2-methyl-4-(2H-tetrazol-5-yl)phenyl]sulfonyl-4H-triazolo[1,5-a]quinazolin-5-one] | >=100 μM | ≥ 100 |
| COc1ccc2c(=O)[nH]c3c(S(=O)(=O)c4ccc(C(N)=O)cc4C)nnn3c2c1 [Compound 32, 4-[(8-methoxy-5-oxo-4H-triazolo[1,5-a]quinazolin-3-yl)sulfonyl]-3-methyl-benzamide] | >=100 μM | ≥ 100 |
| COc1ccc2c(=O)[nH]c3c(S(=O)(=O)c4ccc(-c5nnc(C)[nH]5)cc4C)nnn3c2c1 [Compound 33, 8-methoxy-3-[2-methyl-4-(5-methyl-4H-1,2,4-triazol-3-yl)phenyl]sulfonyl-4H-triazolo[1,5-a]quinazolin-5-one] | >=100 μM | ≥ 100 |
| Cc1ccc(S(=O)(=O)c2nnn3c2[nH]c(=O)c2ccc(OCC#N)cc23)c(C)c1 [Compound 54, 2-[[3-(2,4-dimethylphenyl)sulfonyl-5-oxo-4H-triazolo[1,5-a]quinazolin-8-yl]oxy]acetonitrile] | >=100 μM | ≥ 100 |
| Cc1ccc(S(=O)(=O)c2nnn3c2[nH]c(=O)c2ccc(OCCCC(N)=O)cc23)c(C)c1 [Compound 56, 4-[[3-(2,4-dimethylphenyl)sulfonyl-5-oxo-4H-triazolo[1,5-a]quinazolin-8-yl]oxy]butanamide] | >=100 μM | ≥ 100 |
| COc1cc2c(=O)[nH]c3c(S(=O)(=O)c4ccc(C)cc4C)nnn3c2cc1O [Compound 57, 3-(2,4-dimethylphenyl)sulfonyl-8-hydroxy-7-methoxy-4H-triazolo[1,5-a]quinazolin-5-one] | >=100 μM | ≥ 100 |
| Cc1ccc(S(=O)(=O)c2nnn3c2[nH]c(=O)c2cc(O)c(OCCO)cc23)c(C)c1 [Compound 61, 3-(2,4-dimethylphenyl)sulfonyl-7-hydroxy-8-(2-hydroxyethoxy)-4H-triazolo[1,5-a]quinazolin-5-one] | >=100 μM | ≥ 100 |
